Results reported in patent publication US9370183B2, “Use of ALS inhibitor herbicides for control of unwanted vegetation in ALS inhibitor herbicide tolerant Brassica, such as B. napus, plants” (Bayer Intellectual Property GmbH, priority 2011, dated 2016).
Where two headings read alike, the source gives them in different places.

Tests used:
B. napus mutant FM 202 = type: in vivo, Brassica napus; conditions: spray at BBCH 12-13 with Mero 1 l/ha, visual scoring 14 days after application, 0%=no damage, 100%=all plants dead
Protocol: (§1) The individual components herbicide and surfactant with regard to type and application rate as stated in table 1 were added with stirring to a water application rate of 300 l/ha so that a homogeneous spray mixture was formed. The adjuvant Mero® (Bayer CropScience AG: active ingredient is 81% rapeseed oil methyl ester) was always added to the spray liquids with a use rate of one l/ha.
(§2) Seeds of B. napus were sown in a sandy loam soil and placed in a climate chamber in a greenhouse under good growth conditions (16 h light, temperature day 14° C., night: 8° C.). The plants (10 per experiment) were grown up to growth stage of BBCH 12 to BBCH 13. […] After the treatment, the plants were returned to the climate chamber.
(§3) Visual scoring was carried out using a percentage scale of 0%=no damage to 100%=all plants dead.

[1] = test system: B. napus wild type variety SR002201; assay: Greenhouse herbicide injury, visual scoring, wild type variety; type: in vivo, Brassica napus; conditions: spray at BBCH 12-13 with Mero 1 l/ha, visual scoring 14 days after application, 0%=no damage, 100%=all plants dead
Protocol: as §1, §2, §3

[2] = target: T1, A. thaliana A205V-mutant ALS (Arabidopsis thaliana, UniProt P17597, A205V/E575Q); assay: biochemical; conditions: negative logarithm of the molar concentration inhibiting the enzyme activity by 50%, crude extract of E. coli expressing A. thaliana A205V ALS, 75 min, 30° C.; for IC50: read-out: ALS PI50 A205V (converted)
T1 construct: vector-encoded fusion of pET-32a(+) (Trx/His/S-tag by own knowledge of the vector); made in house; host or cells: Escherichia coli AD494
Protocol: (§4) Bacteria were grown at 37° C. in LB-medium containing 100 mg/l carbenicillin and 25 mg/l canamycin, induced with 1 mM isopropyl-β-D-thiogalactopyranoside at an OD600 of 0.6, cultivated for 16 hours at 18° C. and harvested by centrifugation. Bacterial pellets were resuspended in 100 mM sodium phosphate buffer pH 7.0 containing 0.1 mM thiamine-pyrophosphate, 1 mM MgCl2, and 1 μM FAD at a concentration of 1 gram wet weight per 25 ml of buffer and disrupted by sonification. The crude protein extract obtained after centrifugation was used for ALS activity measurements.
(§5) Assays were initiated by adding enzyme and terminated after 75 min incubation at 30° C. by the addition of 40 μl 0.5 M H2SO4.

[3] = target: T2, A. thaliana S653N-mutant ALS (Arabidopsis thaliana, UniProt P17597, E575Q/S653N); assay: biochemical; conditions: negative logarithm of the molar concentration inhibiting the enzyme activity by 50%, crude extract of E. coli expressing A. thaliana S653N ALS, 75 min, 30° C.; for IC50: read-out: ALS PI50 S653N (converted)
T2 construct: vector-encoded fusion of pET-32a(+) (Trx/His/S-tag by own knowledge of the vector); made in house; host or cells: Escherichia coli AD494
Protocol: as §4, §5

[4] = target: T3, A. thaliana wild-type ALS (Arabidopsis thaliana, UniProt P17597, E575Q); assay: biochemical; conditions: negative logarithm of the molar concentration inhibiting the enzyme activity by 50%, crude extract of E. coli expressing A. thaliana wild-type ALS, 75 min, 30° C.; for IC50: read-out: ALS PI50 WT (converted)
T3 construct: vector-encoded fusion of pET-32a(+) (Trx/His/S-tag by own knowledge of the vector); made in house; host or cells: Escherichia coli AD494
Protocol: as §4, §5

[5] = target: T4, A. thaliana W574L-mutant ALS (Arabidopsis thaliana, UniProt P17597, E575Q/W574L); type: biochemical; conditions: negative logarithm of the molar concentration inhibiting the enzyme activity by 50%; crude extract of E. coli expressing A. thaliana W574L ALS; 75 min, 30° C.
T4 construct: vector-encoded fusion of pET-32a(+) (Trx/His/S-tag by own knowledge of the vector); made in house; host or cells: Escherichia coli AD494
Protocol: as §4, §5

T1 sequence (P17597 56-670 A205V/E575Q): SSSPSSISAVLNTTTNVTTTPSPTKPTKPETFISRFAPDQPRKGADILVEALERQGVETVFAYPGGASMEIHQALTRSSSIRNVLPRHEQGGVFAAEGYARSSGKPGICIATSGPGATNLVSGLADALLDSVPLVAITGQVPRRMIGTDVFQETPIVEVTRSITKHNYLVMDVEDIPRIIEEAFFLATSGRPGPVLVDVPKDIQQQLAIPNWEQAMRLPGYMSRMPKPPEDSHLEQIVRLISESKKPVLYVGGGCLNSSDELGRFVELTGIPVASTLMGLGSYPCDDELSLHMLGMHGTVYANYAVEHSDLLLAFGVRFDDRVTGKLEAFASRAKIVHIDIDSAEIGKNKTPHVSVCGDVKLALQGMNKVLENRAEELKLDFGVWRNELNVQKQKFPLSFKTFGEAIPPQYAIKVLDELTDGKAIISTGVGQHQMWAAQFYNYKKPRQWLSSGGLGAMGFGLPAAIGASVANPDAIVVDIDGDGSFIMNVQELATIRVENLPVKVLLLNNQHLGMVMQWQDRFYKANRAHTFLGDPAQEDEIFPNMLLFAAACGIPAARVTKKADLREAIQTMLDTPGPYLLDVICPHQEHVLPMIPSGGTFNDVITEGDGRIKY
T3 sequence (P17597 56-670 E575Q): as the sequence (P17597 56-670 A205V/E575Q) above, with V150A counted along it
T2 sequence (P17597 56-670 E575Q/S653N): as the sequence (P17597 56-670 A205V/E575Q) above, with V150A, S598N counted along it
T4 sequence (P17597 56-670 W574L/E575Q): as the sequence (P17597 56-670 A205V/E575Q) above, with V150A, W519L counted along it

Compound | IC50 [2] [nM] | IC50 [3] [nM] | IC50 [4] [nM] | also measured
COC(=O)c1ccccc1S(=O)(=O)NC(=O)N(C)c1nc(C)nc(OC)n1 | – | – | – | Herbicide injury on BRSNS [%] FM 202 (B. napus mutant FM 202; 30 g a.i./ha): 3%; Herbicide injury on BRSNS [%] SR002201 ([1]; 30 g a.i./ha): 95%
COc1cc(OC)nc(NC(=O)NS(=O)(=O)N(C)S(C)(=O)=O)n1 [Amidosulfuron, amidosulfuron] | 12600 | 1.26 | – | –
COc1cc(OC)nc(Oc2cccc(Oc3nc(OC)cc(OC)n3)c2C(=O)O)n1 [Bispyribac-sodium, bispyribac-sodium] | 100 | 158 | 15.8 | –
COc1nc(C)nc(NC(=O)NS(=O)(=O)c2ccccc2Cl)n1 [Chlorsulfuron, chlorsulfuron] | – | – | – | Herbicide injury on BRSNS [%] FM 202 (B. napus mutant FM 202; 9 g a.i./ha): 0%; Herbicide injury on BRSNS [%] SR002201 ([1]; 9 g a.i./ha): 97%
CCOc1ccccc1OS(=O)(=O)NC(=O)Nc1nc(OC)cc(OC)n1 [Ethoxysulfuron, ethoxysulfuron] | – | – | – | Herbicide injury on BRSNS [%] FM 202 (B. napus mutant FM 202; 60 g a.i./ha): 0%; Herbicide injury on BRSNS [%] SR002201 ([1]; 60 g a.i./ha): 98%
COc1cc(OC)nc(NC(=O)NS(=O)(=O)c2ncccc2C(F)(F)F)n1 [Flazasulfuron, flazasulfuron] | 15.8 | – | 2.51 | –
COc1ncc(F)c2nc(S(=O)(=O)Nc3c(F)cccc3F)nn12 [Florasulam, florasulam] | – | – | – | ALS PI50 W574L [5]: 4.6; ALS PI50 A205V [2]: 6.1; ALS PI50 WT [4]: 7.9; ALS PI50 S653N [3]: 7.6
COc1cc(OC)nc(NC(=O)NS(=O)(=O)c2cc(NC=O)ccc2C(=O)N(C)C)n1 [Foramsulfuron, foramsulfuron] | 501 | – | – | –
COCc1cnc(C2=NC(C)(C(C)C)C(=O)N2)c(C(=O)O)c1 (stereo not shown) [Imazamox, imazamox] | > 100000 | – | – | Herbicide injury on BRSNS [%] FM 202 (B. napus mutant FM 202; 40 g a.i./ha): 0%; Herbicide injury on BRSNS [%] SR002201 ([1]; 40 g a.i./ha): 93%
COC(=O)c1ccc(I)cc1S(=O)(=O)[N-]C(=O)Nc1nc(C)nc(OC)n1.[Na+] [Iodosulfuron-methy-sodium, iodosulfuron-methyl-sodium] | – | – | – | Herbicide injury on BRSNS [%] FM 202 (B. napus mutant FM 202; 7 g a.i./ha): 0%; Herbicide injury on BRSNS [%] SR002201 ([1]; 7 g a.i./ha): 95%
COC(=O)c1ccc(CNS(C)(=O)=O)cc1S(=O)(=O)NC(=O)Nc1nc(OC)cc(OC)n1 [Mesosulfuron-methyl, mesosulfuron-methyl] | – | – | – | Herbicide injury on BRSNS [%] FM 202 (B. napus mutant FM 202; 15 g a.i./ha): 0%; Herbicide injury on BRSNS [%] SR002201 ([1]; 15 g a.i./ha): 90%
COc1cc(OC)n2nc(S(=O)(=O)Nc3c(Cl)ccc(C)c3Cl)nc2n1 [Metosulam, metosulam] | 794 | 39.8 | 3.16 | –
COC(=O)c1ccccc1S(=O)(=O)NC(=O)Nc1nc(C)nc(OC)n1 [Metsulfuron-methyl, metsulfuron-methyl] | – | – | – | Herbicide injury on BRSNS [%] FM 202 (B. napus mutant FM 202; 8 g a.i./ha): 0%; Herbicide injury on BRSNS [%] SR002201 ([1]; 8 g a.i./ha): 93%
COc1cc(OC)nc(NC(=O)NS(=O)(=O)c2ncccc2C(=O)N(C)C)n1 [Nicosulfuron, nicosulfuron] | 1000 | 1580 | 63.1 | –
CCS(=O)(=O)c1cccnc1S(=O)(=O)NC(=O)Nc1nc(OC)cc(OC)n1 [Rimsulfuron, rimsulfuron] | 158 | 2.51 | 10 | –
CCS(=O)(=O)c1nc2ccccn2c1S(=O)(=O)NC(=O)Nc1nc(OC)cc(OC)n1 [Sulfosulfuron, sulfosulfuron] | 1260 | 79.4 | 15.8 | –
COC(=O)c1csc(C)c1S(=O)(=O)NC(=O)n1nc(OC)n(C)c1=O [Thiencarbazone-methyl, thiencarbazone-methyl] | – | – | – | Herbicide injury on BRSNS [%] FM 202 (B. napus mutant FM 202; 20 g a.i./ha): 0%; Herbicide injury on BRSNS [%] SR002201 ([1]; 20 g a.i./ha): 90%
COC(=O)c1sccc1S(=O)(=O)NC(=O)Nc1nc(C)nc(OC)n1 [Thifensulfuron-Methyl, thifensulfuron-methyl] | 631 | 158 | 31.6 | –
COC(=O)c1cccc(C)c1S(=O)(=O)NC(=O)Nc1nc(OCC(F)(F)F)nc(N(C)C)n1 [Triflusulfuron, triflusulfuron-methyl] | – | – | – | Herbicide injury on BRSNS [%] FM 202 (B. napus mutant FM 202; 20 g a.i./ha): 0%; Herbicide injury on BRSNS [%] SR002201 ([1]; 20 g a.i./ha): 65%
